Experimental data from patent US7135497B1, “Treating neural conditions resulting from spinal cord contusions and other causes” (New York Medical College, priority 2000, dated 2006).

Legend:
[1] = system: spinal cord contused rats; experiment: Locomotor recovery (BBB scale) after weight-drop spinal cord contusion at T10; format: in vivo, rat
Description: (§1) Adult female Wistar rats (˜245 g) were obtained from Charles River Breeding Laboratories and housed in a temperature-regulated (23° C.) animal facility. The spinal cords were contused with a weight drop apparatus similar to the NYU impactor (See also Basso, D. M., M. S. Beattie, and I. C. Breslmahan, 1996, Graded histological and locomotor outcomes after spinal cord contusion using the NYU weight-drop device versus transection, Exp. Neurol. 139:244–256, incorporated by reference) at the level of T10. Prior to surgery, the rats were anesthetized with an injection of pentobarbital sodium (60 mg/kg ip) and laminectomy was performed aseptically at T9–T10 to expose the spinal cord. The spinous processes at T8 and T11 were fixed with clamps to prevent movement during contusion. Body temperature was maintained at 37° C. during the period of anesthesia with a temperature-controlled heating pad and rectal thermometer. Graded injuries were produced in groups of rats by dropping a 10 g rod with a tip diameter of 2.5 mm from heights of either 6.25, 12.5, 25 or 50 mm as in the experiments of Basso identified above. Following contusion, each incision was closed with woundclips. An additional four groups of identically contused rats received clenbuterol received (from Chinoin, Mexico City) that was administered by adding it to the drinking water at a dose of 9 mg/L. This concentration delivers clenbuterol at a rate of 1.6 mg/kg body wt./day. The animals had access to water and food in their cages immediately after recovery from surgery and throughout the experiment. Water consumption is not believed to be affected by the addition of clenbuterol. Oral dosing is particularly effective over prolonged periods because clenbuterol readily enters the circulation via the gut, has high receptor affinity and a relatively long half-life. In all, 8 treatment groups (Table I) were examined. […]
Recovery of locomotor function was determined with BBB scale as previously described. […] For the three days following contusion and at one week intervals thereafter for a total of six weeks, each rat was scored for locomotor function according to the BBB scale. […] For several rats in treatment groups receiving 50 mm weight drops, treatment conditions became known and were scored by one observer. […]
To confirm that salbutamol, a β2-adrenoceptor agonist, can enhance recovery of locomotor function following spinal cord injury. Groups of untreated and salbutamol-treated rats were evaluated with the 21 point Basso, Beattie and Bresnahan (BBB) scale (FIG. 9) following spinal cord contusion with a weight-drop device (10 g, 25 mm drop), Salbutamol was administered via subcutaneously implanted osmotic minipumps (Alzet) that delivered 1 mg/kg body weight/day during the 28 day recovery period. […]

[2] = system: spinal cord contused rats; experiment: Spinal cord histomorphometry: % spared tissue at the contusion center; format: in vivo, rat; conditions: 6 weeks, 9 mg/L in drinking water
Description: as §1, with “examined. All of the procedures involving vertebrate animals were approved by the Institutional Animal Care and Use Committee of New York Medical College.” for “examined.”

[3] = system: motor neuron degeneration (Mnd) mice; experiment: Forelimb and hindlimb grip strength in Mnd and WT mice; format: in vivo, mouse; conditions: 9 mg/L in drinking water until 37 weeks of age
Description: (§2) Forelimb and hindlimb grip strength was measured in groups of Mnd and wild type (WT) mice that were either treated with clenbuterol in the drinking H2O (9 mg/L) until 37 weeks of age or were untreated. Forelimb and hindlimb grip strength was reduced 44–66% in Mnd compared to WT mice (FIG. 6). Clenbuterol caused relative increases in forelimb grip strength that were greater in Mnd (75%) compared to WT (20%, P<0.05, t test) mice. […] These effects of genotype and clenbuterol treatment were paralleled by similar changes in muscle mass. Thus the hindlimb soleus and extensor digitorum longus muscles were reduced 27–32% in Mnd compared to WT mice (FIG. 7). Clenbuterol caused relative increases of 46% and 29% in soleus weight in Mnd and Wt mice, respectively.

[4] = system: motor neuron degeneration (Mnd) mice; experiment: Hindlimb muscle weight in Mnd and WT mice; format: in vivo, mouse; conditions: 9 mg/L in drinking water
Description: as §2

[5] = system: motor neuron degeneration (Mnd) mice; experiment: Behavioral tests of walking and hindlimb splaying (Messer and Flaherty), number of abnormal trials; format: in vivo, mouse; conditions: of 50 trials per week, from 31 to 37 weeks of age, clenbuterol-treated n=5, P<0.01 versus untreated
Description: Behavioral tests developed by Messer and Flaherty in their original description of the Mnd mice were also performed. As described in their publication (J. Neurogenetics 3:345–355, 1986), incorporated by reference, five tests of different aspects of walking and hindlimb splaying are run each week with 10 trials for each test for a total of 50 trials. The mean number of abnormal trials occurring in clenbuterol-treated (n=5) and untreated (n=7) Mnd mice were determined until the mice were 37 weeks of age at the end of the experiment (FIG. 8). Beginning at 31 weeks of age, there is a marked worsening of behavioral scores. […] The frequency of abnormal motoneurons in each mouse was highly correlated with locomotor scores. Clenbuterol reduced the frequency of abnormal motoneurons to 8.3±0.7% (P<0.015) indicating a neurotrophic effect of β2-agonist treatment.

[6] = system: motor neuron degeneration (Mnd) mice; experiment: Motoneuron counts and abnormal eccentric nuclei in the lumbar spinal cord; format: in vivo, mouse
[7] = system: cultured hippocampal neurons; conditions: in vitro; the NGF protected cultured hippocampal neurons from glutamate excitotoxicity; cited from earlier work
[8] = system: brain ischemia; conditions: in vivo; cited from earlier work
[9] = system: interleukin-6 secretion; conditions: cited from earlier work
[10] = in vivo; cited from earlier work

Question: Which “improvement in final BBB score due to clenbuterol” value ([1]; 25 mm weight drop, versus untreated, 6 weeks) does the source give for `CC(C)(C)NCC(O)c1cc(Cl)c(N)c(Cl)c1` (stereo not shown) [clenbuterol] here?
Answer: 9.3 levels

Question: And the “increase in BBB score” value ([1]; 50 mm weight drop, fourth, fifth and sixth weeks, versus untreated)?
Answer: 5.1–5.8 levels

Question: What about the “mean of the final BBB scores” value ([1]; mean ±SE over the four clenbuterol-treated groups (6.25-50 mm weight drops), 6 weeks, 9 mg/L in drinking water, untreated 8.0±2.9, P<0.05) of the same molecule?
Answer: 13.2±1.5

Question: And the “sparing of spinal cord tissue accounted for by treatment” value (“sparing of spinal cord tissue accounted” below) ([2]; 12.5 mm weight drop)?
Answer: 23%

Question: What about the “sparing of spinal cord tissue accounted” value ([2]; 25 mm weight drop) of the same molecule?
Answer: 33%

Question: And the “sparing of spinal cord tissue accounted” value ([2]; 50 mm weight drop)?
Answer: 34%

Question: And the “increase in hindlimb grip strength” value ([3]; Mnd mice)?
Answer: 29%

Question: What about the “relative increase in forelimb grip strength” value ([3]; Mnd mice) of the same molecule?
Answer: 75%

Question: What about the “effect on hindlimb strength” value ([3]; WT mice) of the same molecule?
Answer: did not significantly affect

Question: What about the “relative increase in forelimb grip strength” value ([3]; WT mice) of the same molecule?
Answer: 20%

Question: And the “increase in extensor digitorum longus muscle weight” value ([4]; Mnd mice)?
Answer: 21%

Question: What about the “relative increase in soleus weight” value ([4]; Mnd mice) of the same molecule?
Answer: 46%

Question: What about the “relative increase in soleus weight” value ([4]; Wt mice) of the same molecule?
Answer: 29%

Question: What about the “mean number of abnormal trials” value [5] of the same molecule?
Answer: 6.3±1.6

Question: What about the “motoneuron counts in the lumbar spinal cord” value [6] of the same molecule?
Answer: not significantly reduced in Mnd mice or affected by clenbuterol

Question: What about the “frequency of abnormal motoneurons (abnormal eccentric nuclei)” value ([6]; clenbuterol-treated, untreated Mnd 12.6±0.9%, WT 2.3±0.2%, P<0.015) of the same molecule?
Answer: 8.3±0.7%

Question: And the “release of NGF” value [7]?
Answer: caused the release of NGF

Question: And the “effect on hippocampal neurons following ischemia” value [8]?
Answer: neuroprotective effects

Question: What about the “infarct volume due to brain ischemia” value [8] of the same molecule?
Answer: reduced infarct volume

Question: What about the “secretion of IL-6” value [9] of the same molecule?
Answer: greatly increases secretion of IL-6

Question: What about the blood-brain barrier passage [10] of the same molecule?
Answer: crosses the blood-brain barrier

Question: For `CC(C)(C)NCC(O)c1ccc(O)c(CO)c1` (stereo not shown) [salbutamol], which “recovery of locomotor function (BBB scale)” value ([1]; 10 g, 25 mm drop, 1 mg/kg body weight/day by subcutaneous osmotic minipump, 28 days, versus untreated control, P<0.05) is on record?
Answer: significantly greater
